Reference: US12441733B2, “Substituted 2,4-dioxotetrahydropyrimidines as intermediates in the synthesis of bruton's tyrosine kinase inhibitors” (Novartis AG, priority 2018, dated 2025)

Target: T1, BTK(C481S)-GFP (Homo sapiens, UniProt Q06187+Q96SW2, C481S)
T1 construct: CHYSEL (cis-acting hydrolase element, 2A) remnant after GFP; mCherry is split off as a separate protein (C); expressed in transfected cells; host or cells: TMD8 cells, lentiviral transduction with pLenti6-BTK(C481S)-GFP-CHYSEL-mCherry
Assay: BTK(C481S)-GFP protein abundance flow cytometry assay in TMD8 cells
Assay type: cell-based
Settings: TMD8 cells expressing BTK(C481S)-GFP; for DC50: GFP signal by flow cytometry; for BTK (C481S) Amax: % protein remaining at maximum degradation
Description: Compounds of the invention were tested in the following cellular assays. The terms in Table 2 are defined as follows: DC50 refers to the concentration at which 50% maximal degradation was observed; deg Amax is the extent of degradation and the value refers to the % protein remaining at the concentration at which maximum degradation is seen; ProI GI50 refers to the proliferation data and defines the concentration at which 50% growth inhibition was observed compared to the vehicle treated control at the end of the incubation time. TMD8 cells are BTK dependent and OCI-LY3 cells are BTK independent.
Btk(C481S)-GFP Protein Abundance Flow Cytometry Assay in TMD8 Cells:
Degradation of BTK(C481S) was measured in TMD8 cells expressing BTK(C481S)-GFP and mCherry from a stably integrated second generation bicistronic BTK(C481S)-GFP-CHYSEL-mCherry construct. Reduction of the […] measured by flow cytometry served as readout for BTK(C481S) degradation after degrader treatment.
Cloning of the pLenti6-BTK(C481)-GFP-CHYSEL-mCherry Sensor Vectors
The BTK(C481 S) protein abundance sensor is based on a second generation bicistronic construct, where the 2 reading frames BTK(C481S) and mCherry control are separated by a cis-acting hydrolase element (see: Lo et al., 2015 Cell Reports 13, 2634), replacing the Ires from the first generation vector described before.
The bicistronic BTK(C481S)-GFP-CHYSEL-mCherry construct is based on a pLenti6-DEST vector backbone where a GFP-CHYSEL-mCherry cassette was synthesized and inserted downstream of the DEST cassette by Gibson assembly resulting in the new gateway compatible vector pLenti6-DEST-GFP-CHYSEL-mCherry to allow Gateway cloning with pENTR221-BTK(C48S)(STOP-Leu) to obtain the final sensor construct pLenti6-BTK(C481S)-GFP-CHYSEL-mCherry. The pENTR221-BTK(C481S)(STOP-Leu) was generated by mutating wild-type BTK to BTK(C481S) with a mutagenesis reaction on pENTR221-BTK (STOP-Leu) with the following primers (BTK C481S Quikchange fw, gagtacatggccaatggctCcctcctgaactacctgagg (SEQ ID NO: 7); BTK C481S Quikchange REVC, cctcaggtagttcaggaggGagccattggccatgtactc (SEQ ID NO: 8)) using the QuikChange Lightning mutagenesis kit (Agilent Technologies #210518) performed according to the manufacturer's manual, resulting in pENTR221-BTK(C481S)(STOP-Leu).
Sequence of the synthesized construct (Xho1 sites are shown in bold, mCherry-ORF is shown in small letters):
Engineering of Stably Expressing TMD8 BTK(C481 S-GFP-CHYSEL-mCherry Sensor Cells
TMD8 BTK(C481S)-GFP-CHYSEL-mCherry sensor cells were generated by lentiviral vector transduction using the pLenti6-BTK(C4818)-GFP-CHYSEL-mCherry sensor construct described before. Lentiviral particles were produced in HEK293FT cells (Invitrogen R70007) by co-transfection of 500 ng pLenti6-BTK-GFP-Ires-RFP or pLenti6-IKZF3-GFP-Ires-RFP, 500 ng delta8.71 and 200 ng pVSVG diluted in 100 μl OptiMEM serum free medium (Invitrogen #11058-021) that was mixed after 5 min preincubation with 3 μl of Lipofectamine2000 (Invitrogen #11668-019) in 97 μl OptiMEM serum free medium. The mix was incubated for another 20 min at RT and then added to 1 ml of a freshly prepared suspension of HEK293FT cells in a well of a 6-well plate (concentration 1.2×10^6 cells/ml). 1 day after transfection, the medium was replaced with 1.5 ml of complete growth medium (DMEM high Glucose+10% FCS+1% L-Glutamine+1% NEAA+1% NaPyr.). 48 h post transfection supernatant containing viral transducing particles was collected and frozen at −80° C.
Two days before transduction with viral particles 1×10^5 HEK293A cells (Invitrogen R7057) were seeded in 2 ml growth medium in a well of a 6-well plate. Infection was performed with 90 μl of collected supernatant containing viral transducing particles in 1 ml medium including 8 μg/ml polybrene. 24 h post infection, stably transfected cells were selected with blasticidin at a concentration of 8 μg/ml.

T1 sequence (Q06187 whole entry C481S): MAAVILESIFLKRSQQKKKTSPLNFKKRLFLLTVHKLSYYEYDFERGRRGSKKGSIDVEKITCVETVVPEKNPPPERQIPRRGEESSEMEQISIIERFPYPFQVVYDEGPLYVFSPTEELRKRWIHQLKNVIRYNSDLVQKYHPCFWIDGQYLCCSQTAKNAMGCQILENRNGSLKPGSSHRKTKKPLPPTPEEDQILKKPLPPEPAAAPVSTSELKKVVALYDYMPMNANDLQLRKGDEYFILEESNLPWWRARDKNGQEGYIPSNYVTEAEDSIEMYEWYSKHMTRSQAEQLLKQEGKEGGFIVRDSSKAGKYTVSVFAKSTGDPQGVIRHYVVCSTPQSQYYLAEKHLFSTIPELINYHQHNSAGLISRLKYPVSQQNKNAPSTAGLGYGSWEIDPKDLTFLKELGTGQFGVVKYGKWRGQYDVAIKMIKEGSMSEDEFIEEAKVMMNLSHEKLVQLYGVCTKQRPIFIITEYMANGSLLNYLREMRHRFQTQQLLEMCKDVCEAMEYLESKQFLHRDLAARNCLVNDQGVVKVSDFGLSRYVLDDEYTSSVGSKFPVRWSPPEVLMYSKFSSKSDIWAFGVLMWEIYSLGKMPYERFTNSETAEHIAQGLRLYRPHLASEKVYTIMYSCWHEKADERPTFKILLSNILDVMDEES
T1 sequence (Q96SW2 whole entry): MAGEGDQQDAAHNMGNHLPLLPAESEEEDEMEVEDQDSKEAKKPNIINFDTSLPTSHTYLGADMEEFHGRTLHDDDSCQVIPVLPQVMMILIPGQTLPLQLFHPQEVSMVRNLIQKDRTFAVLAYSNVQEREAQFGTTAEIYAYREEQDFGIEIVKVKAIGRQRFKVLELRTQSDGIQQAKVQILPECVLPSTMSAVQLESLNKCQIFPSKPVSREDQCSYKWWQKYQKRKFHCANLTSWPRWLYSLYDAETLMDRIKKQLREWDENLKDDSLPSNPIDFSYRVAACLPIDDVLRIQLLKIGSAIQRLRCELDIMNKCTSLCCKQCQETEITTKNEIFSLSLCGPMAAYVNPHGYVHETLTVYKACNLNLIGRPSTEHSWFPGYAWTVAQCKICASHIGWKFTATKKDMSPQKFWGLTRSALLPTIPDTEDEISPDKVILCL
T1 sequence (Q16531 whole entry partner): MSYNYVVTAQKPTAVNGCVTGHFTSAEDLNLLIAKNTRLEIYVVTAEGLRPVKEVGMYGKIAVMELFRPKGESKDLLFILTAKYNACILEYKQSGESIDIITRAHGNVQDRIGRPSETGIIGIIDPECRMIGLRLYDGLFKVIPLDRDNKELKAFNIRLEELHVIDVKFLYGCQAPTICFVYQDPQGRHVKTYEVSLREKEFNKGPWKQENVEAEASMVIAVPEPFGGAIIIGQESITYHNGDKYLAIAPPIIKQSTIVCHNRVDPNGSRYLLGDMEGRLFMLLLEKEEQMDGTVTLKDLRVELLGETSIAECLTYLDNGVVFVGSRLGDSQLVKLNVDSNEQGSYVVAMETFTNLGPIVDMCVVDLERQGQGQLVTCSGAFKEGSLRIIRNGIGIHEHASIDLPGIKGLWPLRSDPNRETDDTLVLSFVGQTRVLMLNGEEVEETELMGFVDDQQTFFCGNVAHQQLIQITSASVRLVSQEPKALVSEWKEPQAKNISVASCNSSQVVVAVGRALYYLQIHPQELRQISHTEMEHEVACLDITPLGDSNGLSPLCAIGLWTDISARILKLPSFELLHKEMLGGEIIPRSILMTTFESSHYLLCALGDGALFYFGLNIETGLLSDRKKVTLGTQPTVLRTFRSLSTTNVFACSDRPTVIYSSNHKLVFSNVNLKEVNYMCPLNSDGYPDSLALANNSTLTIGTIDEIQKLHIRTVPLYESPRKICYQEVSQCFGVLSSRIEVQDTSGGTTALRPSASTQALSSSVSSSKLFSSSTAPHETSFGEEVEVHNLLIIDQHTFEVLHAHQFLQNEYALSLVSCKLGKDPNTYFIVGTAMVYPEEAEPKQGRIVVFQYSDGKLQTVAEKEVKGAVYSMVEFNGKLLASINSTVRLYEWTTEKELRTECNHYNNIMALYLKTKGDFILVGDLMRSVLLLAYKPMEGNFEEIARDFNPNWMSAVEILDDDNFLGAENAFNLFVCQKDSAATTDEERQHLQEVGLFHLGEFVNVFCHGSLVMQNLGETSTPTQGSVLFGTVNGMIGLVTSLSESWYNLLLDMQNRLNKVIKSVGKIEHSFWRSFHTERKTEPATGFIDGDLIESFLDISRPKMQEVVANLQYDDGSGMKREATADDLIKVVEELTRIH

| SMILES | DC50 | BTK (C481S) Amax |
| --- | --- | --- |
| Cc1ccc(C(=O)N(C)CCCCCNCc2ccc(-c3cc4c(-c5cc(F)cc(NC(=O)c6ccc(C(C)(C)O)cc6F)c5C)ncnc4[nH]3)cc2)cc1N1CCC(=O)NC1=O [Compound 30, 3-(2,4-Dioxotetrahydropyrimidin-1(2H)-yl)-N-(5-((4-(4-(5-fluoro-3-(2-fluoro-4-(2-hydroxypropan-2-yl)benzamido)-2-methylphenyl)-7H-pyrrolo[2,3-d]pyrimidin-6-yl)benzyl)amino)pentyl)-N,4-dimethylbenzamide] | 8.18 nM | 3.1% |
| COc1ccc(C(=O)N2CCC(OC3CCN(CCc4ccc(-c5cc6c(-c7cc(F)cc(NC(=O)c8ccc(C(C)(C)O)cc8F)c7C)ncnc6[nH]5)cc4)CC3)CC2)cc1N1CCC(=O)NC1=O [Compound 34, N-(3-(6-(4-(2-(4-((1-(3-(2,4-Dioxotetrahydropyrimidin-1(2H)-yl)-4-methoxybenzoyl)piperidin-4-yl)oxyl)piperidin-1-yl)ethyl)phenyl)-7H-pyrrolo[2,3-d]pyrimidin-4-yl)-5-fluoro-2-methylphenyl)-2-fluoro-4-(2-hydroxypropan-2-yl)benzamide] | 1.94 nM | 1.6% |
| Cc1c(NC(=O)c2ccc(C(C)(C)O)cc2F)cc(F)cc1-c1ncnc2[nH]c(-c3ccc(CCN4CCC5(CC4)CCN(C(=O)c4ccc(F)c(N6CCC(=O)NC6=O)c4)CC5)cc3)cc12 [Compound 47, N-(3-(6-(4-(2-(9-(3-(2,4-dioxotetrahydropyrimidin-1(2H)-yl)-4-fluorobenzoyl)-3,9-diazaspiro[5.5]undecan-3-yl)ethyl)phenyl)-7H-pyrrolo[2,3-d]pyrimidin-4-yl)-5-fluoro-2-methylphenyl)-2-fluoro-4-(2-hydroxypropan-2-yl)benzamide] | 0.72 nM | 2.4% |
| CCOc1ccc(C(=O)N2CCC3(CCN(Cc4ccc(-c5cc6c(-c7cc(F)cc(NC(=O)c8ccc(C(C)(C)O)cc8F)c7C)ncnc6[nH]5)cc4)CC3)CC2)cc1N1CCC(=O)NC1=O [Compound 4, N-(3-(6-(4-((9-(3-(2,4-Dioxotetrahydropyrimidin-1(2H)-yl)-4-ethoxybenzoyl)-3,9-diazaspiro[5.5]undecan-3-yl)methyl)phenyl)-7H-pyrrolo[2,3-d]pyrimidin-4-yl)-5-fluoro-2-methylphenyl)-2-fluoro-4-(2-hydroxypropan-2-yl)benzamide] | 2.08 nM | 2.2% |
| Cc1ccc(C(=O)N2CCC3(CCN(Cc4ccc(-c5cc6c(-c7cc(F)cc(NC(=O)c8ccc(C(C)(C)O)cc8F)c7C)ncnc6[nH]5)cc4)CC3)CC2)cc1N1CCC(=O)NC1=O [Compound 27, N-(3-(6-(4-((9-(3-(2,4-Dioxotetrahydropyrimidin-1(2H)-yl)-4-methylbenzoyl)-3,9-diazaspiro[5.5]undecan-3-yl)methyl)phenyl)-7H-pyrrolo[2,3-d]pyrimidin-4-yl)-5-fluoro-2-methylphenyl)-2-fluoro-4-(2-hydroxypropan-2-yl)benzamide] | 0.81 nM | 2.8% |
